tested on: HCV 1b genotype; assay: HCV replicon assay (HCV-neo replicon cells, wild-type); assay type: cell-based, Hepatitis C virus; settings: HCV 1b genotype replicon; class symbol; read-out: EC50 Range against HCV 1b
Method: An HCV Replicon assay was utilized in the present disclosure, and was prepared, conducted and validated as described in commonly owned PCT/US2006/022197 and in O'Boyle et al., Antimicrob. Agents Chemother, 49(4):1346-1353 (April 2005). Assay methods incorporating luciferase reporters have also been used as described (Apath.com).
HCV-neo replicon cells and replicon cells containing resistance substitutions in the NS5A region were used to test the currently described family of compounds.
The compounds were determined to have differing degrees of reduced inhibitory activity on cells containing mutations vs. the corresponding inhibitory potency against wild-type cells. Thus, the compounds of the present disclosure can be effective in inhibiting the function of the HCV NS5A protein and are understood to be as effective in combinations as previously described in application PCT/US2006/022197 and commonly owned WO 04/014852. It should be understood that the compounds of the present disclosure can inhibit multiple genotypes of HCV. […] In one embodiment, compounds of the present disclosure are inhibitory versus 1a, 1b, 2a, 2b, 3a, 4a, and 5a genotypes.

First: CN(C)C(C(=O)N1CCC[C@H]1C(=O)Nc1ccc(-c2cnc(-c3ccc(NC(=O)[C@@H]4CCCN4C(=O)C(c4ccc(F)cc4F)N(C)C)cc3)o2)cc1)c1ccc(F)cc1F (single isomer, unassigned) [Example D-6]
Second: Cn1ccnc1C(O)C(=O)N1CCC[C@H]1C(=O)Nc1ccc(-c2cnc(-c3ccc(NC(=O)[C@@H]4CCCN4C(=O)C(O)c4nccn4C)cc3)o2)cc1 (stereo partly drawn) [Example D-11, (2S,2′S)-N,N′-(4,4′-(oxazole-2,5-diyl)bis(4,1-phenylene))bis(1-(2-hydroxy-2-(1-methyl-1H-imidazol-2-yl)acetyl)pyrrolidine-2-carboxamide)]
The EC50 of the first is lower: < 4.57 nM for the first, 1000 to 10000 nM for the second.

Compared with CN(C)C(C(=O)N1CCC[C@H]1C(=O)Nc1ccc(-c2cnc(-c3ccc(NC(=O)[C@@H]4CCCN4C(=O)C(c4ccc(F)cc4F)N(C)C)cc3)o2)cc1)c1ccc(F)cc1F (single isomer, unassigned) [Example D-7], CC(C)n1c(=O)n(CC(=O)N2CCC[C@H]2C(=O)Nc2ccc(-c3cnc(-c4ccc(NC(=O)[C@@H]5CCCN5C(=O)Cn5c(=O)n(C(C)C)c6cc(F)c(F)cc65)cc4)o3)cc2)c2cc(F)c(F)cc21 [Example D-9, (2S,2′S)-N,N′-(4,4′-(oxazole-2,5-diyl)bis(4,1-phenylene))bis(1-(2-(5,6-difluoro-3-isopropyl-2-oxo-2,3-dihydro-1H-benzo[d]imidazol-1-yl)acetyl)pyrrolidine-2-carboxamide)] is higher in EC50: 4.57 to 99 nM for the first, 1000 to 10000 nM for the second. The first is the more potent here.

First: O=C(Nc1ccc(-c2cnc(-c3ccc(NC(=O)C4CC5CC5N4C(=O)C(O)c4ccccc4)cc3)o2)cc1)C1CC2CC2N1C(=O)C(O)c1ccccc1 [CB-5, (1S,3S,5S,1′S,3′S,5′S)-N,N′-(1,3-oxazole-2,5-diyldi-4,1-phenylene)bis(2-((2S)-2-hydroxy-2-phenylacetyl)-2-azabicyclo[3.1.0]hexane-3-carboxamide)]
Second: O=C(Nc1ccc(-c2cnc(-c3ccc(NC(=O)[C@@H]4C[C@@H]5C[C@@H]5N4C(=O)[C@H](O)c4ccccc4)cc3)o2)cc1)[C@@H]1C[C@@H]2C[C@@H]2N1C(=O)[C@H](O)c1ccccc1 [CB-6, (1S,3S,5S,1′S,3′S,5′S)-N,N′-(1,3-oxazole-2,5-diyldi-4,1-phenylene)bis(2-((2R)-2-hydroxy-2-phenylacetyl)-2-azabicyclo[3.1.0]hexane-3-carboxamide)]
The EC50 of the first is higher: 4.57 to 99 nM for the first, < 4.57 nM for the second.

Compared with O=C(Nc1ccc(-c2cnc(-c3ccc(NC(=O)C4CC5CC5N4C(=O)C4CCCO4)cc3)o2)cc1)C1CC2CC2N1C(=O)C1CCCO1 [CB-7, (1S,3S,5S,1′S,3′S,5′S)-N,N′-(1,3-oxazole-2,5-diyldi-4,1-phenylene)bis(2-((2R)-tetrahydro-2-furanylcarbonyl)-2-azabicyclo[3.1.0]hexane-3-carboxamide)], CC(O)(C(=O)N1C(C(=O)Nc2ccc(-c3cnc(-c4ccc(NC(=O)C5CC6CC6N5C(=O)C(C)(O)c5ccccc5)cc4)o3)cc2)CC2CC21)c1ccccc1 [CB-8, (1S,3S,5S,1′S,3′S,5′S)-N,N′-(1,3-oxazole-2,5-diyldi-4,1-phenylene)bis(2-((2S)-2-hydroxy-2-phenylpropanoyl)-2-azabicyclo[3.1.0]hexane-3-carboxamide)] is lower in EC50: 100 to 999 nM for the first, < 4.57 nM for the second.

CN(C)[C@@H](C(=O)N1[C@H](C(=O)Nc2ccc(-c3cnc(-c4ccc(NC(=O)[C@@H]5C[C@@H]6C[C@@H]6N5C(=O)[C@@H](c5ccccc5)N(C)C)cc4)o3)cc2)C[C@@H]2C[C@@H]21)c1ccccc1 [CB-9, (1S,3S,5S,1′S,3′S,5′S)-N,N′-(1,3-oxazole-2,5-diyldi-4,1-phenylene)bis(2-((2R)-2-(dimethylamino)-2-phenylacetyl)-2-azabicyclo[3.1.0]hexane-3-carboxamide)] and CC(O)(C(=O)N1C(C(=O)Nc2ccc(-c3cnc(-c4ccc(NC(=O)C5CC6CC6N5C(=O)C(C)(O)c5ccccc5)cc4)o3)cc2)CC2CC21)c1ccccc1 [CB-10, (1S,3S,5S,1′S,3′S,5′S)-N,N′-(1,3-oxazole-2,5-diyldi-4,1-phenylene)bis(2-((2R)-2-hydroxy-2-phenylpropanoyl)-2-azabicyclo[3.1.0]hexane-3-carboxamide)] cannot be ordered by EC50: < 4.57 nM for the first, < 4.57 nM for the second.

same assay, conditions: HCV 1b genotype replicon; read-out: EC50 1b

First: CC(O)(C(=O)N1C(C(=O)Nc2ccc(-c3cnc(-c4ccc(NC(=O)C5CC6CC6N5C(=O)C(C)(O)c5ccccc5)cc4)o3)cc2)CC2CC21)c1ccccc1 [CB-8, (1S,3S,5S,1′S,3′S,5′S)-N,N′-(1,3-oxazole-2,5-diyldi-4,1-phenylene)bis(2-((2S)-2-hydroxy-2-phenylpropanoyl)-2-azabicyclo[3.1.0]hexane-3-carboxamide)]
Second: Cn1ccnc1C(O)C(=O)N1CCC[C@H]1C(=O)Nc1ccc(-c2cnc(-c3ccc(NC(=O)[C@@H]4CCCN4C(=O)C(O)c4nccn4C)cc3)o2)cc1 (stereo partly drawn) [Example D-11, (2S,2′S)-N,N′-(4,4′-(oxazole-2,5-diyl)bis(4,1-phenylene))bis(1-(2-hydroxy-2-(1-methyl-1H-imidazol-2-yl)acetyl)pyrrolidine-2-carboxamide)]
The EC50 of the first is lower: < 5 nM for the first, 2090 nM for the second.

Compound CC(C)n1c(=O)n(CC(=O)N2CCC[C@H]2C(=O)Nc2ccc(-c3cnc(-c4ccc(NC(=O)[C@@H]5CCCN5C(=O)Cn5c(=O)n(C(C)C)c6cc(F)c(F)cc65)cc4)o3)cc2)c2cc(F)c(F)cc21 [Example D-9, (2S,2′S)-N,N′-(4,4′-(oxazole-2,5-diyl)bis(4,1-phenylene))bis(1-(2-(5,6-difluoro-3-isopropyl-2-oxo-2,3-dihydro-1H-benzo[d]imidazol-1-yl)acetyl)pyrrolidine-2-carboxamide)] has an EC50 of 3330 nM.

same assay, conditions: Hepatitis C virus, HCV 1b genotype replicon; class symbol; read-out: EC50 Range against HCV 1b

Compared with CC(=O)N[C@@H](C(=O)N1[C@H](C(=O)Nc2ccc(-c3cnc(-c4ccc(NC(=O)[C@@H]5C[C@@H]6C[C@@H]6N5C(=O)[C@H](NC(C)=O)c5ccccc5)cc4)o3)cc2)C[C@@H]2C[C@@H]21)c1ccccc1, CC(=O)O[C@@H](C(=O)N1CCC[C@H]1C(=O)Nc1ccc(-c2ccc(-c3ccc(NC(=O)[C@@H]4CCCN4C(=O)[C@H](OC(C)=O)c4ccccc4)cc3)o2)cc1)c1ccccc1 is lower in EC50: 4.57 to 99 nM for the first, < 4.57 nM for the second. The second is the more potent here.

First: CC(=O)O[C@H](C(=O)N1CCC[C@H]1C(=O)Nc1ccc(-c2ccc(-c3ccc(NC(=O)[C@@H]4CCCN4C(=O)[C@@H](OC(C)=O)c4ccccc4)cc3)o2)cc1)c1ccccc1
Second: CN1CCN(C(C(=O)N2CCC[C@H]2C(=O)Nc2ccc(-c3cnc(-c4ccc(NC(=O)[C@@H]5CCCN5C(=O)C(c5ccccc5)N5CCN(C)CC5)cc4)o3)cc2)c2ccccc2)CC1 (stereo partly drawn) [Example D-8, (2S,2′S)-N,N′-(1,3-oxazole-2,5-diyldi-4,1-phenylene)bis(1-((4-methyl-1-piperazinyl)(phenyl)acetyl)-2-pyrrolidinecarboxamide)]
The EC50 of the first is higher: 100 to 999 nM for the first, 4.57 to 99 nM for the second.

O=C(Nc1ccc(-c2ncc(-c3ccc(NC(=O)[C@@H]4CCCN4C(=O)C4CC4)cc3)o2)cc1)C1CCCN1C(=O)C1CC1 (stereo in doubt) [JG-7, (2S,2′S)-N,N′-(1,3-oxazole-2,5-diyldi-4,1-phenylene)bis(1-(cyclopropylcarbonyl)-2-pyrrolidinecarboxamide)] and O=C(Nc1ccc(-c2cnc(-c3ccc(NC(=O)[C@@H]4CCCN4C(=O)C(O)c4nccs4)cc3)o2)cc1)[C@@H]1CCCN1C(=O)C(O)c1nccs1 (stereo partly drawn) [Example D-10, (2S,2′S)-N,N′-(1,3-oxazole-2,5-diyldi-4,1-phenylene)bis(1-(hydroxy(1,3-thiazol-2-yl)acetyl)-2-pyrrolidinecarboxamide)] fall in the same range of EC50: 100 to 999 nM for the first, 100 to 999 nM for the second.

Compared with CC(NC(=O)[C@@H](O)c1ccccc1)C(=O)Nc1ccc(-c2cc(-c3ccc(NC(=O)[C@H](C)NC(=O)[C@@H](O)c4ccccc4)cc3)n[nH]2)cc1 (stereo in doubt) [OL-43, (S)-2-((S)-2-hydroxy-2-phenylacetamido)-N-(4-(5-(4-((R)-2-((S)-2-hydroxy-2-phenylacetamido)propanamido)phenyl)-1H-pyrazol-3-yl)phenyl)propanamide], CCc1ccccc1C(=O)N1CC=C[C@H]1C(=O)Nc1ccc(-c2ncc(-c3ccc(NC(=O)[C@@H]4CCCN4C(C)=O)cc3)o2)cc1 [Example D-2, (2S)-N-[4-[5-[4-[[[(2S)-1-acetyl-2-pyrrolidinyl]carbonyl]amino]phenyl]-2-oxazolyl]phenyl]-1-(2-ethylbenzoyl)-2,5-dihydro-1H-pyrrole-2-carboxamide] is higher in EC50: 4.57 to 99 nM for the first, 100 to 999 nM for the second. The first is the more potent here.

NC(=O)[C@@H]1C[C@@H]2C[C@@H]2N1C(=O)C1c2ccccc2C=CN1c1ccc(-c2ncc(-c3ccc(NC(=O)[C@@H]4C[C@@H]5C[C@@H]5N4C(=O)c4nccc5ccccc45)cc3)o2)cc1 (stereo partly drawn) [CB-2, (1S,3S,5S,1′S,3′S,5′S)-N,N′-(1,3-oxazole-2,5-diyldi-4,1-phenylene)bis(2-(1-isoquinolinylcarbonyl)-2-azabicyclo[3.1.0]hexane-3-carboxamide)] and COc1cccc2c1C=C(Cl)N(c1ccc(-c3ncc(-c4ccc(NC(=O)[C@@H]5C[C@@H]6C[C@@H]6N5C(=O)c5nc(Cl)cc6c(OC)cccc56)cc4)o3)cc1)C2C(=O)N1[C@H](C(N)=O)C[C@@H]2C[C@@H]21 (stereo partly drawn) [CB-4, (1S,3S,5S,1′S,3′S,5′S)-N,N′-(1,3-oxazole-2,5-diyldi-4,1-phenylene)bis(2-((3-chloro-5-methoxy-1-isoquinolinyl)carbonyl)-2-azabicyclo[3.1.0]hexane-3-carboxamide)] fall in the same range of EC50: 100 to 999 nM for the first, 100 to 999 nM for the second.

CC(=O)N1CCC[C@H]1C(=O)Nc1ccc(-c2cnc(-c3ccc(NC(=O)[C@@H]4C=CCN4C(=O)Cc4cccs4)cc3)o2)cc1 [Example D-1, (2S)-N-[4-[5-[4-[[[(2S)-1-acetyl-2-pyrrolidinyl]carbonyl]amino]phenyl]-2-oxazolyl]phenyl]-2,5-dihydro-1-(2-thienylacetyl)-1H-pyrrole-2-carboxamide] and CC(=O)N1CCC[C@H]1C(=O)Nc1ccc(-c2cnc(-c3ccc(NC(=O)[C@@H]4C=CCN4C(=O)c4ccno4)cc3)o2)cc1 [Example D-3, (2S)-N-[4-[5-[4-[[[(2S)-1-acetyl-2-pyrrolidinyl]carbonyl]amino]phenyl]-2-oxazolyl]phenyl]-2,5-dihydro-1-(5-isoxazolylcarbonyl)-1H-pyrrole-2-carboxamide] fall in the same range of EC50: 1000 to 10000 nM for the first, 1000 to 10000 nM for the second.

CN(C)C(C(=O)N1CCC[C@H]1C(=O)Nc1ccc(-c2cnc(-c3ccc(NC(=O)[C@@H]4CCCN4C(=O)C(c4ccccc4F)N(C)C)cc3)o2)cc1)c1ccccc1F (stereo partly drawn) [Example D-4, (2S,2′S)-N,N′-(2,5-oxazolediyldi-4,1-phenylene)bis[1-[(dimethylamino)(2-fluorophenyl)acetyl]-2-pyrrolidinecarboxamide]] and CN(C)C(C(=O)N1CCC[C@H]1C(=O)Nc1ccc(-c2cnc(-c3ccc(NC(=O)[C@@H]4CCCN4C(=O)C(c4ccc(F)cc4F)N(C)C)cc3)o2)cc1)c1ccc(F)cc1F (stereo partly drawn) [Example D-5, (2S,2′S)-N,N′-(2,5-oxazolediyldi-4,1-phenylene)bis[1-[(2,4-difluorophenyl)(dimethylamino)acetyl]-2-pyrrolidinecarboxamide]] cannot be ordered by EC50: < 4.57 nM for the first, < 4.57 nM for the second.

same assay, conditions: Hepatitis C virus, HCV 1b genotype replicon; read-out: EC50 1b

In the case of CC(=O)N[C@@H](C(=O)N1[C@H](C(=O)Nc2ccc(-c3cnc(-c4ccc(NC(=O)[C@@H]5C[C@@H]6C[C@@H]6N5C(=O)[C@H](NC(C)=O)c5ccccc5)cc4)o3)cc2)C[C@@H]2C[C@@H]21)c1ccccc1, the EC50 is reported as < 5 nM.
